Assay results: patent US7888385B2, “Airway alkalinization as therapy for airway diseases” (priority 2002, dated 2011)
Counter-ions that a name gives are not always drawn.

Tests used:
[1] = Practical applications: asthma patient cases; assay type: in vivo, human
Source text: (§1) Practical Applications of the Present Invention

[2] = existing formulations; cited from earlier work
[3] = test system: airway epithelial glutaminase; experiment: Ammonium accumulation by small airway epithelial cells (SAEC) in 3 mM glutamine; assay type: cell-based, human
Procedure: (SAEC: Clonetics) grown to confluence in six well plates with 3 mM glutamine were incubated with S-Nitrosoglutathione (GSNO; 200 μm) in the presence or absence of cysteinyl glycine (CG; 100 μM). Ammonium accumulation over time was compared with control cells. S-Nitrosoglutathione require conversion to S-Nitrosocysteinyl glycine (CGSNO) (whether through simple transnitrosation reactions in the presence of CG or through cleavage by γ glutamyl transpeptidase) to be fully active at intracellular sites, such as mitochondrial glutaminase, in some system. However, conversion of GSNO to CGSNO dramatically shortens the chemical and biological half-life of the SNO moiety. […] Accumulation of NH4^+ in medium alone was at the threshold of detection.

mycobacteria = details: human, in vivo, pH 3
Source text: as §1

[4] = cited from earlier work
glutaminase = experiment: Glutaminase activity in cultured lung epithelial cells; assay type: cell-based; details: 100 u/ml, at 24 and 48 hours, p<0.01, n=3 each
Source text: An indirect effect of HRV infection involving inflammatory and/or neuronal mediators is also possible. In particular, IFN γ is a likely candidate to mediate glutaminase inhibition because 1) Th1 cytokines inhibit glutaminase activity in lower airway epithelial cells 2) IFN γ inhibits glutaminase in other cell systems; and 3) IFN γ production following HRV infection in the setting of Th2-lymphocyte associated chronic inflammation may contribute to asthmatic airway narrowing. Applicants have shown that 100 u/ml interferon gamma inhibits glutaminase activity in cultured lung epithelial cells in excess of 65% at 24 and 48 hours (p<0.01, n=3 each). Though circulating T cells could produce IFN γ during rhinovirus infections, it seems more likely that it would be secreted in the airway itself as a result of local recruitment and activation of Th1 and/or CD8 cells.
In accordance with one embodiment, a method of treating asthma comprises nebulizing or treating systemically with a compound that facilitates breakdown of S-Nitrosothiols, such as CuCl, Cu/Zn SOD, glutathione peroxidase, glutathione-dependent formaldehyde dehydrogenase or gamma glutamyl transpeptidase. […]

## CC(C)(C)NCC(O)c1ccc(O)c(CO)c1 (centres unmarked) [Albuterol]
[1]; 0.083 mg diluted in normal saline (pH 3.5), child
  asthma symptoms: symptoms do not improve
[1]; same dose diluted in 10 mM phosphate buffered saline, pH 8
  asthma symptoms: symptoms resolve
[2]
  pH of existing formulation: 3 to 5

## N[C@@H](CS)C(=O)NCC(=O)O [CG, cysteinyl glycine]
[3]; cysteinyl glycine 100 μM added to GSNO 200 μm, after 48 hours
  effect on GSNO inhibition of NH4+ accumulation after 48 hours: eliminated the GSNO effect

## [Cl][Cu] [CuCl]
[1]; 10 μM in 10 mM phosphate buffered saline, pH 8, three times/day
  asthma symptoms: asthma symptoms resolve

## N[C@@H](CCC(=O)N[C@@H](CSN=O)C(=O)NCC(=O)O)C(=O)O [GSNO, S-Nitrosoglutathione]
[3]; GSNO 200 μm in the presence of cysteinyl glycine 100 μM, 24 hours
  NH4+ accumulation at 24 hours: no NH4^+ at all accumulated
[3]; GSNO 200 μm, SAEC, p<0.01 by ANOVA
  NH4+ accumulation over time vs control cells: inhibited NH4^+ accumulation at each time point

## CC(C)(C)NC[C@H](O)c1ccc(O)c(CO)c1 [Levalbuterol HCl]
[1]; levalbuterol and budesonide together, 0.5 mg by nebulizer four times/day
  asthma symptoms: without relief of their symptoms
[2]
  pH of existing formulation: 3.3-4.5

## CC(=O)O [acetic acid]
mycobacteria
  tuberculosis symptoms: symptoms resolve

## O=C(O)CN(CCO)CCO [bicine, N,N-Bis(2-hydroxyethyl)glycine]
[4]
  pKa: 8.46

## OC(Cn1cncn1)(Cn1cncn1)c1ccc(F)cc1F [fluconazole]
[1]; 7 day course, 200 mg/day, chronic yeast infection in mouth
  asthma symptoms: asthma symptoms improve

## NC(=O)CC[C@H](N)C(=O)O [glutamine]
[1]; 1 gm by mouth three times a day
  asthma symptoms: does not develop any asthma symptoms
[1]; 1 gm by nebulizer (pH 8) twice a day at onset of upper respiratory symptoms
  asthma exacerbation: does not develop an asthma exacerbation

## NCC(=O)O [glycine, aminoacetic acid]
[1]; 1 mM glycine in 10 mM CAPS (pH 7.6) by nebulizer immediately before levalbuterol and budesonide
  asthma symptoms: becomes asymptomatic

## O=C(O)CNC(CO)(CO)CO [tricene, N-[tris(hydroxymethyl)methyl] glycine]
[4]
  pKa: 8.26

## interferon gamma: Th1-derived cytokine that inhibits glutaminase
glutaminase
  inhibition of glutaminase activity: > 65%
